Laboratory results taken from ChEMBL document CHEMBL1127439, “Structure-activity relationship studies of central nervous system agents. 13. 4-[3-(Benzotriazol-1-yl)propyl]-1-(2-methoxyphenyl)piperazine, a new putative 5-HT1A receptor antagonist, and its analogs” (J Med Chem, 1994).

Columns and labels:
[1] = tested on: Rattus norvegicus; assay: Tested for the effect on 8-OH-DPAT-induced behavior in reserpine pretreated rat against flat body posture at dosage of 4 mg/kg; type: functional
[2] = tested on: Rattus norvegicus; assay: Tested for the effect on 8-OH-DPAT-induced lower lip retraction (LLR) in rat at dosage of 16 mg/kg; type: functional
[3] = tested on: Rattus norvegicus; assay: Tested for the effect on 8-OH-DPAT-induced behavior in reserpine pretreated rat against forepaw treading at dosage of 4 mg/kg; type: functional
[4] = tested on: Rattus norvegicus; assay: Tested for the effect on 8-OH-DPAT-induced behavior in reserpine pretreated rat against forepaw treading at dosage of 8 mg/kg; type: functional
[5] = tested on: Mus musculus; assay: Effect on 8-OH-DPAT-induced hypothermia in mice (5 mg/kg) at intraperitoneal dosage of 16 mg/kg of compound after 30 mins; type: functional
[6] = tested on: Rattus norvegicus; assay: Tested for the effect on 8-OH-DPAT-induced behavior in reserpine pretreated rat against flat body posture at dosage of 8 mg/kg; type: functional
[7] = tested on: Mus musculus; assay: Effect on body temperature in mice at intraperitoneal dosage of 16 mg/kg, (compound administered 30 min before the test) after 75 min; type: functional
[8] = tested on: Rattus norvegicus; assay: Tested for the induction of lower lip retraction (LLR) by the investigated compounds in rat at dosage of 16 mg/kg; type: functional
[9] = tested on: Mus musculus; assay: Effect on 8-OH-DPAT-induced hypothermia in mice (5 mg/kg) at intraperitoneal dosage of 8 mg/kg of compound after 60 mins; type: functional
[10] = tested on: Mus musculus; assay: Effect on body temperature in mice at intraperitoneal dosage of 4 mg/kg, (compound administered 30 min before the test) after 30 min; type: functional
[11] = biological target: T1, 5-hydroxytryptamine receptor 1A (Rattus norvegicus, UniProt P19327); assay: Tested in vitro for receptor binding affinity against 5-hydroxytryptamine 1A receptor using radioligand [3H]8-OH-DPAT
T1 sequence (P19327 whole entry): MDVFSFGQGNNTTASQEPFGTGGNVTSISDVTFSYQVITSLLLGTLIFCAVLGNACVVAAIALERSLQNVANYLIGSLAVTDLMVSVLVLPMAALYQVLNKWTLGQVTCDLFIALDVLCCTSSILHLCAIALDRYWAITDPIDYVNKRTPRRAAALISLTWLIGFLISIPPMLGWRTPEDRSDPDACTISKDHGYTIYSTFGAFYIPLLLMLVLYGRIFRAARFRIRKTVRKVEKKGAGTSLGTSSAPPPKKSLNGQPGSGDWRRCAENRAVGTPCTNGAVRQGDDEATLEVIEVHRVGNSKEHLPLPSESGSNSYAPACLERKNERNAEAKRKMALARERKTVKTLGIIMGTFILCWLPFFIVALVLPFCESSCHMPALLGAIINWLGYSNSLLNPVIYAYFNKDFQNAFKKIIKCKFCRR

[12] = tested on: Mus musculus; assay: Effect on 8-OH-DPAT-induced hypothermia in mice (5 mg/kg) at intraperitoneal dosage of 8 mg/kg of compound after 30 mins; type: functional
[13] = tested on: Mus musculus; assay: Effect on body temperature in mice at intraperitoneal dosage of 4 mg/kg, (compound administered 30 min before the test) after 45 min; type: functional
[14] = tested on: Mus musculus; assay: Effect on 8-OH-DPAT-induced hypothermia in mice (5 mg/kg) at intraperitoneal dosage of 4 mg/kg of compound after 60 mins; type: functional
[15] = tested on: Mus musculus; assay: Effect on 8-OH-DPAT-induced hypothermia in mice (5 mg/kg) at intraperitoneal dosage of 8 mg/kg of compound after 15 mins; type: functional
[16] = tested on: Mus musculus; assay: Effect on body temperature in mice at intraperitoneal dosage of 4 mg/kg, (compound administered 30 min before the test) after 60 min; type: functional
[17] = tested on: Rattus norvegicus; assay: Tested for the effect on 8-OH-DPAT-induced lower lip retraction (LLR) in rat at dosage of 4 mg/kg; type: functional
[18] = tested on: Rattus norvegicus; assay: Tested for the effect on 8-OH-DPAT-induced lower lip retraction (LLR) in rat at dosage of 2 mg/kg; type: functional
[19] = biological target: Serotonin 2 (5-HT2) receptor (Rattus norvegicus, UniProt P30994+P08909+P14842); assay: Tested in vitro for receptor binding affinity against 5-hydroxytryptamine 2 receptor using radioligand [3H]ketanserin; type: protein assay
[20] = tested on: Mus musculus; assay: Effect on body temperature in mice at intraperitoneal dosage of 8 mg/kg, (compound administered 30 min before the test) after 60 min; type: functional
[21] = tested on: Mus musculus; assay: Effect on 8-OH-DPAT-induced hypothermia in mice (5 mg/kg) at intraperitoneal dosage of 4 mg/kg of compound after 30 mins; type: functional
[22] = tested on: Rattus norvegicus; assay: Tested for the effect on 8-OH-DPAT-induced lower lip retraction (LLR) in rat at dosage of 8 mg/kg; type: functional
[23] = tested on: Rattus norvegicus; assay: Tested for the induction of lower lip retraction (LLR) by the investigated compounds in rat at dosage of 8 mg/kg; type: functional
[24] = tested on: Mus musculus; assay: Effect on body temperature in mice at intraperitoneal dosage of 16 mg/kg, (compound administered 30 min before the test) after 30 min; type: functional
[25] = species on record: Rattus norvegicus; assay: Selectivity is the ratio between Ki values of 5-HT2 and 5-HT1A
[26] = tested on: Mus musculus; assay: Effect on 8-OH-DPAT-induced hypothermia in mice (5 mg/kg) at intraperitoneal dosage of 4 mg/kg of compound after 45 mins; type: functional
[27] = tested on: Rattus norvegicus; assay: Tested for the induction of lower lip retraction (LLR) by the investigated compounds in rat at dosage of 4 mg/kg; type: functional
[28] = tested on: Mus musculus; assay: Effect on body temperature in mice at intraperitoneal dosage of 16 mg/kg, (compound administered 30 min before the test) after 90 min; type: functional
[29] = tested on: Rattus norvegicus; assay: Tested for the induction of lower lip retraction (LLR) by the investigated compounds in rat at dosage of 2 mg/kg; type: functional
[30] = tested on: Mus musculus; assay: Effect on body temperature in mice at intraperitoneal dosage of 8 mg/kg, (compound administered 30 min before the test) after 90 min; type: functional
[31] = tested on: Mus musculus; assay: Effect on body temperature in mice at intraperitoneal dosage of 8 mg/kg, (compound administered 30 min before the test) after 45 min; type: functional
[32] = tested on: Mus musculus; assay: Effect on body temperature in mice at intraperitoneal dosage of 8 mg/kg, (compound administered 30 min before the test) after 30 min; type: functional
[33] = tested on: Mus musculus; assay: Effect on body temperature in mice at intraperitoneal dosage of 4 mg/kg, (compound administered 30 min before the test) after 75 min; type: functional
[34] = tested on: Mus musculus; assay: Effect on 8-OH-DPAT-induced hypothermia in mice (5 mg/kg) at intraperitoneal dosage of 8 mg/kg of compound after 45 mins; type: functional
[35] = tested on: Mus musculus; assay: effect on body temperature in mice at intraperitoneal dosage of 16 mg/kg, (compound administered 30 min before the test) after 45 min; type: functional
[36] = tested on: Mus musculus; assay: Effect on body temperature in mice at intraperitoneal dosage of 8 mg/kg, (compound administered 30 min before the test) after 75 min; type: functional
[37] = tested on: Mus musculus; assay: Effect on 8-OH-DPAT-induced hypothermia in mice (5 mg/kg) at intraperitoneal dosage of 16 mg/kg of compound after 15 mins; type: functional
[38] = tested on: Rattus norvegicus; assay: Tested for the effect on 8-OH-DPAT-induced behavior in reserpine pretreated rat against flat body posture at dosage of 16 mg/kg; type: functional
[39] = tested on: Mus musculus; assay: Effect on 8-OH-DPAT-induced hypothermia in mice (5 mg/kg) at intraperitoneal dosage of 16 mg/kg of compound after 60 mins; type: functional
[40] = tested on: Rattus norvegicus; assay: Tested for the effect on 8-OH-DPAT-induced behavior in reserpine pretreated rat against forepaw treading at dosage of 16 mg/kg; type: functional
[41] = tested on: Mus musculus; assay: Effect on 8-OH-DPAT-induced hypothermia in mice (5 mg/kg) at intraperitoneal dosage of 16 mg/kg of compound after 45 mins; type: functional
[42] = tested on: Mus musculus; assay: Effect on body temperature in mice at intraperitoneal dosage of 4 mg/kg, (compound administered 30 min before the test) after 90 min; type: functional
[43] = tested on: Mus musculus; assay: Effect on 8-OH-DPAT-induced hypothermia in mice (5 mg/kg) at intraperitoneal dosage of 4 mg/kg of compound after 15 mins; type: functional
[44] = tested on: Mus musculus; assay: Effect on body temperature in mice at intraperitoneal dosage of 16 mg/kg, (compound administered 30 min before the test) after 60 min; type: functional

COc1ccccc1N1CCN(CCCn2nc3ccccc3n2)CC1
Behavioral score [1]: 13.8 | LLR score [2]: 2.2 | Behavioral score [3]: 8 | Behavioral score [4]: 4.8 | Delta t [5]: 2 °C | Behavioral score [6]: 11.8 | Delta t [7]: 0.4 °C | LLR score [8]: 0.3 | Delta t [9]: 0.7 °C | Delta t [10]: 0.1 °C | Ki [11]: 24 nM | Delta t [12]: 1.5 °C | Delta t [13]: 0.3 °C | Delta t [14]: 0.6 °C | Delta t [15]: 2 °C | Delta t [16]: 0.1 °C | LLR score [17]: 1.8 | LLR score [18]: 2.3 | Ki [19]: 1580 nM | Delta t [20]: 0.4 °C | Delta t [21]: 1.4 °C | LLR score [22]: 1.8 | LLR score [23]: 0.4 | Delta t [24]: 0.2 °C | Selectivity [25]: 66 | Delta t [26]: 0.9 °C | LLR score [27]: 0.2 | Delta t [28]: 0.2 °C | LLR score [29]: 0.2 | Delta t [30]: 0.3 °C | Delta t [31]: 0.2 °C | Delta t [32]: 0.1 °C | Delta t [33]: 0.2 °C | Delta t [34]: 0.9 °C | Delta t [35]: 0.3 °C | Delta t [36]: 0.3 °C | Delta t [37]: 2.6 °C | Behavioral score [38]: 12.4 | Delta t [39]: 0.9 °C | Behavioral score [40]: 4 | Delta t [41]: 1.3 °C | Delta t [42]: 0.1 °C | Delta t [43]: 1.8 °C | Delta t [44]: 0.3 °C

CCCN1CCN(c2ccccc2OC)CC1
Ki [19]: 3290 nM | Selectivity [25]: 13

COc1ccccc1N1CCN(CCn2nnc3ccccc32)CC1
Ki [11]: 42 nM | Ki [19]: 1620 nM | Selectivity [25]: 39

CCCCN1CCN(c2ccccc2OC)CC1
Ki [11]: 57 nM | Ki [19]: 2280 nM | Selectivity [25]: 40
